ChEMBL document CHEMBL5104111, “Boron-Containing heterocycles as promising pharmacological agents” (Bioorg Med Chem, 2022)
Converted amounts (≈) assume the structure as drawn.

How the values were obtained:
[1] = test system: Plasmodium falciparum; assay: Antimalarial activity against Plasmodium falciparum 3D7 assessed as parasite growth inhibition; assay type: functional, organism-based
[2] = test system: Plasmodium falciparum; assay: Antimalarial activity against Plasmodium falciparum W2 assessed as parasite growth inhibition; assay type: functional, organism-based
[3] = biological target: Carbonic anhydrase 2 (Homo sapiens, UniProt P00918); assay: Binding affinity to human CA-II assessed as inhibition constant preincubated for 15 mins by bromothymol blue staining based assay
[4] = Binding affinity to Candida glabrata beta-carbonic anhydrase assessed as inhibition constant preincubated for 15 mins by bromothymol blue staining based assay; parameters: species or system Nakaseomyces glabratus
[5] = biological target: Carbonic anhydrase 1 (Homo sapiens, UniProt P00915); assay: Binding affinity to human CA-I assessed as inhibition constant preincubated for 15 mins by bromothymol blue staining based assay
[6] = Binding affinity to Cryptococcus neoformans beta-carbonic anhydrase assessed as inhibition constant preincubated for 15 mins by bromothymol blue staining based assay
[7] = Dissociation constant, pKa of the compound; assay type: physicochemical
[8] = test system: Hepatitis C virus; assay: Antiviral activity against HCV GT1a316Y assessed as reduction in viral replication; assay type: functional, organism-based, Hepacivirus hominis
[9] = Half life in human; assay type: ADME
[10] = Inhibition of beta-lactamase CTX-M-15 (unknown origin) using nitrocefin as substrate preincubated for 5 mins followed by substrate addition measured after 1 to 5 mins by colorimetry; parameters: species or system Bacteria
[11] = Inhibition of beta-lactamase P99 (unknown origin) using nitrocefin as substrate preincubated for 5 mins followed by substrate addition measured after 1 to 5 mins by colorimetry; parameters: species or system Bacteria
[12] = Inhibition of beta-lactamase OXA-24 (unknown origin) using nitrocefin as substrate preincubated for 5 mins followed by substrate addition measured after 1 to 5 mins in presence of KHCO3 by colorimetry; parameters: species or system Bacteria
[13] = Inhibition of beta-lactamase TEM-1 (unknown origin) using nitrocefin as substrate preincubated for 5 mins followed by substrate addition measured after 1 to 5 mins by colorimetry; parameters: species or system Bacteria
[14] = Inhibition of beta-lactamase KPC-2 (unknown origin) using nitrocefin as substrate preincubated for 5 mins followed by substrate addition measured after 1 to 5 mins by colorimetry; parameters: species or system Bacteria
[15] = test system: Trypanosoma brucei; assay: Antitrypanosomal activity against Trypanosoma brucei assessed as parasite growth inhibition; assay type: functional, organism-based
[16] = test system: Mycobacterium tuberculosis; assay: Antibacterial activity against Mycobacterium tuberculosis assessed as bacterial growth inhibition by broth microdilution method; assay type: functional
[17] = test system: Trypanosoma brucei; assay: Antiparasitic activity against Trypanosoma brucei 427 assessed as parasite growth inhibition incubated for 24 hrs by fluorescence based assay; assay type: functional, organism-based; conditions: Trypanosoma brucei, 427, 24 h
[18] = test system: Mycobacterium tuberculosis; assay: Antibacterial activity against Mycobacterium tuberculosis H37Rv assessed as bacterial growth inhibition cultured in 7H9 medium measured after 14 days by absorbance based assay; assay type: functional; conditions: 336 h, time 14 day
[19] = test system: Mycobacterium tuberculosis; assay: Antibacterial activity against Mycobacterium tuberculosis H37Rv assessed as bacterial growth inhibition cultured in GAST medium measured after 14 days by absorbance based assay; assay type: functional; conditions: 336 h, time 14 day
[20] = test system: Candida albicans; assay: Antifungal activity against Candida albicans assessed as fungal growth inhibition incubated for 48 hrs by agar diffusion method; assay type: functional
[21] = test system: Penicillium ochrochloron; assay: Antifungal activity against Penicillium ochrochloron assessed as fungal growth inhibition incubated for 72 hrs by agar diffusion method; assay type: functional
[22] = test system: Aspergillus niger; assay: Antifungal activity against Aspergillus niger assessed as fungal growth inhibition incubated for 48 hrs by agar diffusion method; assay type: functional
[23] = test system: Staphylococcus epidermidis; assay: Antibacterial activity against Staphylococcus epidermidis assessed as bacterial growth inhibition by broth microdilution method; assay type: functional
[24] = test system: Escherichia coli; assay: Antibacterial activity against Escherichia coli expressing tolC assessed as bacterial growth inhibition by broth microdilution method; assay type: functional
[25] = test system: Onchocerca volvulus; assay: Antiparasitic activity against third stage larvae of Onchocerca volvulus assessed as parasite growth inhibition incubated for 6 days by inverted microscopy; assay type: functional, organism-based; conditions: 144 h
[26] = test system: Mycobacterium tuberculosis; assay: Antibacterial activity against Mycobacterium tuberculosis H37Rv ATCC 25618 infected in human THP-1 cells assessed as bacterial growth inhibition at MOI of 1 incubated for 3 days by Cell Titer Glo assay; assay type: functional, organism-based; conditions: H37Rv ATCC 25618, THP-1, 72 h
[27] = test system: Mycobacterium tuberculosis; assay: Antibacterial activity against Mycobacterium tuberculosis H37Rv ATCC 25618 assessed as bacterial growth inhibition cultured in solid media incubated for 3 to 4 weeks; assay type: functional; conditions: time 3-4 weeks
[28] = test system: Mycobacterium tuberculosis; assay: Antibacterial activity against Mycobacterium tuberculosis H37Rv ATCC 25618 assessed as bacterial growth inhibition cultured in liquid media for 5 days by absorbance based assay; assay type: functional; conditions: H37Rv ATCC 25618, 120 h, time 5 day
[29] = test system: HepG2; assay: Cytotoxicity against human HepG2 cells assessed as cell growth inhibition incubated for 2 days by Cell Titer Glo assay; assay type: functional, cell-based; conditions: HepG2, 48 h
[30] = Inhibition of Escherichia coli LeuRS using Escherichia coli tRNA as substrate incubated for 20 mins in presence of 14C-leucine/ATP
[31] = Bioavailability in monkey; assay type: ADME, organism-based, Macaca mulatta; conditions: rhesus monkey, in vivo
[32] = test system: Escherichia coli; assay: Antibacterial activity against Escherichia coli ATCC 25922 assessed as bacterial growth inhibition; assay type: functional
[33] = test system: Plasmodium falciparum; assay: Antimalarial activity against multidrug-resistant Plasmodium falciparum W2 assessed as parasite growth inhibition incubated for 48 hrs by FACS analysis; assay type: functional, organism-based; conditions: W2, 48 h
[34] = biological target: T1, 3',5'-cyclic-AMP phosphodiesterase 4B (Homo sapiens, UniProt Q07343); assay: Displacement of […] from full-length recombinant human PDE4B2 by fluorescence polarisation assay
[35] = biological target: 3',5'-cyclic-AMP phosphodiesterase 4D (Homo sapiens, UniProt Q08499); assay: Displacement of […] from full-length recombinant human PDE4D7 by fluorescence polarisation assay
[36] = biological target: 3',5'-cyclic-AMP phosphodiesterase 4C (Homo sapiens, UniProt Q08493); assay: Displacement of […] from full-length recombinant human PDE4C1 by fluorescence polarisation assay
[37] = biological target: T1, 3',5'-cyclic-AMP phosphodiesterase 4B; assay: Displacement of […] from full-length recombinant human PDE4B2 catalytic domain by fluorescence polarisation assay
[38] = biological target: T1, 3',5'-cyclic-AMP phosphodiesterase 4B; assay: Displacement of […] from full-length recombinant human PDE4B1 by fluorescence polarisation assay
[39] = Tmax in Sprague-Dawley rat at 1 mg/kg, po or 1 mg/kg, iv measured upto 7 hrs by LC/MS analysis; assay type: ADME, organism-based; conditions: in vivo
[40] = AUC in Sprague-Dawley rat at 1 mg/kg, po measured upto 7 hrs by LC/MS analysis; assay type: ADME, organism-based; parameters: dose 1 mg/kg, time < 7 hrs, route po; conditions: in vivo
[41] = biological target: Cyclin-dependent kinase 2 (Homo sapiens, UniProt P24941); assay: Inhibition of CDK2 (unknown origin) using peptide substrate in presence of ATP
[42] = Bioavailability in Sprague-Dawley rat […] measured upto 7 hrs by LC/MS analysis; assay type: ADME, organism-based; conditions: in vivo
[43] = Cmax in Sprague-Dawley rat at 1 mg/kg, po or 1 mg/kg, iv measured upto 7 hrs by LC/MS analysis; assay type: ADME, organism-based; parameters: time < 7 hrs, dose 1 mg/kg, route po; conditions: in vivo
[44] = Half life in Sprague-Dawley rat at 1 mg/kg, po or 1 mg/kg, iv measured upto 7 hrs by LC/MS analysis; assay type: ADME, organism-based; conditions: in vivo
[45] = test system: Aspergillus niger; assay: Antifungal activity against Aspergillus niger assessed as fungal growth inhibition; assay type: functional

T1 sequence (Q07343 whole entry): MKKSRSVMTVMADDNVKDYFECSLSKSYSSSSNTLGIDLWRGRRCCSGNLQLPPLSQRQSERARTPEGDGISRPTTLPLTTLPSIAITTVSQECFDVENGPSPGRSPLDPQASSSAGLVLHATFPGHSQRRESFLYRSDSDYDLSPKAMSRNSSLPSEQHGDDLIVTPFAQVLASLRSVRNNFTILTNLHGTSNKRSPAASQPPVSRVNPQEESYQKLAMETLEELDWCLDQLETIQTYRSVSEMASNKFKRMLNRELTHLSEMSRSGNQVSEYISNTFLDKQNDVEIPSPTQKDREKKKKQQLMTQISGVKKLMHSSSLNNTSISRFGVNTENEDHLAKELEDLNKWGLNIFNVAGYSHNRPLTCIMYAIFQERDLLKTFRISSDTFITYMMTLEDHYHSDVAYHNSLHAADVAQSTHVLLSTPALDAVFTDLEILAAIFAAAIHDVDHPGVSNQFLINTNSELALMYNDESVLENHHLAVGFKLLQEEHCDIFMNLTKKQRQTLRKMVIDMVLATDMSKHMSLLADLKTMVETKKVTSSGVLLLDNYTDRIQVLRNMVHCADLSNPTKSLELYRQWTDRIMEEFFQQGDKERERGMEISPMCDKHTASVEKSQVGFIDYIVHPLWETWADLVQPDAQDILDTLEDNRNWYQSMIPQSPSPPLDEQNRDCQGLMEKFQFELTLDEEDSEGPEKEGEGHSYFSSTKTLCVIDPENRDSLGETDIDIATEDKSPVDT
Sequence of Carbonic anhydrase 1 (P00915 whole entry): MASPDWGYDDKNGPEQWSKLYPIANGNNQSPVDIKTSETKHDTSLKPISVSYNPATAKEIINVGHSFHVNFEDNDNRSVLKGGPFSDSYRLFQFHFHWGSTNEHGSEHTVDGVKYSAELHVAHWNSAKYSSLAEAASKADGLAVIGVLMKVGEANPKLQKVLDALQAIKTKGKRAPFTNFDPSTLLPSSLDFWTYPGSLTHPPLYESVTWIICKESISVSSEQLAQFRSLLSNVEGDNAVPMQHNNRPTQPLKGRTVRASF
Sequence of 3',5'-cyclic-AMP phosphodiesterase 4C (Q08493 whole entry, the tested form may be a part): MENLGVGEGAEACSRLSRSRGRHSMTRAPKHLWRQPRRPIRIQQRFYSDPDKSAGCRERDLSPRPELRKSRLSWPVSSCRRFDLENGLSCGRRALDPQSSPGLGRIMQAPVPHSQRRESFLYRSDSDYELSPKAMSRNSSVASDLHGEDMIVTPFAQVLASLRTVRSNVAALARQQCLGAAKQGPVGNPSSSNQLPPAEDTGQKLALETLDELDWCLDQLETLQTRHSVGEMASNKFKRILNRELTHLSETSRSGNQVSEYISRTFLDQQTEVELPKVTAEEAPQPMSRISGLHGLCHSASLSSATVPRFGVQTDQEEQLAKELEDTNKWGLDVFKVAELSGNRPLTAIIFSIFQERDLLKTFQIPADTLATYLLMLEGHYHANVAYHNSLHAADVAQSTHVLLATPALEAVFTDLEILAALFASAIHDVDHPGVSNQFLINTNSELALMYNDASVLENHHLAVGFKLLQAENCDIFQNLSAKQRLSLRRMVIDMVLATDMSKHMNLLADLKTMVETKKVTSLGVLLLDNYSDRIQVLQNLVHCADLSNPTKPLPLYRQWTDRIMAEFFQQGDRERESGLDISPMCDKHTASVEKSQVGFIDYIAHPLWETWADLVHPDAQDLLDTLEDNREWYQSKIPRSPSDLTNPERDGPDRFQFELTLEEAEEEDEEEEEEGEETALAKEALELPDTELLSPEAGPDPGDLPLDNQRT
Sequence of 3',5'-cyclic-AMP phosphodiesterase 4D (Q08499 whole entry): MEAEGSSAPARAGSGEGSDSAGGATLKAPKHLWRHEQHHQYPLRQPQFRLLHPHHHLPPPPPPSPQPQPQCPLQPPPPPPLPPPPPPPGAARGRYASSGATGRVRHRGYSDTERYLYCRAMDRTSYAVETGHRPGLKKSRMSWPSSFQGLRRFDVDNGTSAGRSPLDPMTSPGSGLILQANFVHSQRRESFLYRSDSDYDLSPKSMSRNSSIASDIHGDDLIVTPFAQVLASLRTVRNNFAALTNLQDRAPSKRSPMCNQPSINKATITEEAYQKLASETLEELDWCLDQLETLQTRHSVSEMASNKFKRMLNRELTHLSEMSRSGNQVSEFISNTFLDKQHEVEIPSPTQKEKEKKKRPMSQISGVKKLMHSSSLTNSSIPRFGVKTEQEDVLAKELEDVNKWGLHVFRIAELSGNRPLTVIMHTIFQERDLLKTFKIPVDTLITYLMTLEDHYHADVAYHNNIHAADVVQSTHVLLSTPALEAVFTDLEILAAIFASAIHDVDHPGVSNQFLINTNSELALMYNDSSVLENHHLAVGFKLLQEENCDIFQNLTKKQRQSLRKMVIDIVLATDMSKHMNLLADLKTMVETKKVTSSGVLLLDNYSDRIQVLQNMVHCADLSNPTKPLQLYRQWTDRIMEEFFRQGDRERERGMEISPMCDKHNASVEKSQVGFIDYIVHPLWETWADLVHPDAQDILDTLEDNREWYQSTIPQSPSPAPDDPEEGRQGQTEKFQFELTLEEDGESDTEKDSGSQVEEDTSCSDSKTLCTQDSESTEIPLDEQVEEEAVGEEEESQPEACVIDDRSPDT

In the case of `Cc1c(Oc2cnc(C(=O)N3CC(C)(O)C3)cn2)ccc2c1B(O)OC2`, the IC50 [1] is reported as 43 µM and the IC50 [2] is reported as 33 µM.
`O=[N+]([O-])c1ccc(NC(=S)Nc2ccc3c(c2)B(O)OC3)cc1` showed a Ki [3] of 504 nM, a Ki [4] of 89 nM and a Ki [5] of 6.35 µM. It also gave a Ki [6] of 88 nM.
Compound `CNC(=O)c1c(-c2ccc(F)cc2)oc2cc(N(c3cc(Cl)c4c(c3)COB4O)S(C)(=O)=O)c(C3CC3)cc12` has a pKa [7] of 5.4, an EC50 [8] of 32 nM and a half-life [9] of 2.5 days.
For `Cc1c(Oc2nc(N)ns2)cc2c(c1C)[C@@H](CC(=O)O)OB2O`, the IC50 [10] was less than 5 nM, the IC50 [11] was 12 nM and the IC50 [12] was 88 nM. The IC50 [13] was less than 5 nM and the IC50 [14] was 26 nM.
In the case of `O=C(/C=C/c1ccc2c(c1)OCO2)Nc1ccc2c(c1)B(O)OC2`, the IC50 [15] is reported as 100 nM, the MIC99 [16] is reported as 40.7 µM (≈ 13.2 µg/mL) and the IC50 [17] is reported as 86 nM.
Compound `Nc1cc2c(cc1Br)COB2O` has an MIC99 [18] of 7.8 µM (≈ 1.78 µg/mL) and an MIC99 [19] of 1.9 µM (≈ 0.433 µg/mL).
In the case of `OB1OC(N2CCN(C3OB(O)c4cccc(F)c43)CC2)c2c(F)cccc21` (stereo not given), the “inhibition zone (IZ)” value [20] is reported as 35 mm, the “inhibition zone (IZ)” value [21] is reported as 41 mm and the “inhibition zone (IZ)” value [22] is reported as 41 mm.
Compound `CC[C@H]1OC(=O)[C@H](C)[C@@H](O[C@H]2C[C@@](C)(OC)[C@@H](O)[C@H](C)O2)[C@H](C)[C@@H](O[C@@H]2O[C@H](C)C[C@H](N(C)C)[C@H]2O)[C@](C)(OC)C[C@@H](C)/C(=N\OCC(=O)NC[C@H]2OB(O)c3ccccc32)[C@H](C)[C@@H](O)[C@]1(C)O` has an MIC [23] of 0.5 µg/mL (≈ 0.518 µM) and an MIC [24] of 8 µg/mL (≈ 8.28 µM).
`COC(=O)Nc1nc2cc(C(=O)NCc3ccc4c(c3)B(O)OC4(C)C)ccc2[nH]1` gave an IC50 [25] of 300 nM.
For `Cc1c(OCc2ccccc2)ccc2c1B(O)OC2`, the IC50 [26] was 3.6 µM, the MIC [27] was 0.8 µM (≈ 0.203 µg/mL) and the MIC [28] was 2 µM (≈ 0.508 µg/mL). For the same compound, the IC50 [29] was greater than 100 µM.
With `Cl.NC[C@H]1OB(O)c2c1ccc1c2OCO1` the IC50 [30] was 380 nM, the bioavailability [31] was 100% and the MIC [32] was 1 µg/mL.
Work on `CCOc1ccc(Br)c2c1B(O)O[C@@H]2CC` yielded an IC50 [33] of 490 nM.
For `CC(C)OCCOc1ncc(Oc2ccc3c(c2)B(O)OC3)cc1C#N`, the IC50 [34] was 2.1 nM, the IC50 [35] was 2.1 nM and the IC50 [36] was 2.1 nM. It also gave an IC50 [37] of 2.1 nM and an IC50 [38] of 2.1 nM.
`O=C(Cc1ccc(B2C=CC=CN2)cc1)Nc1cc(C2CC2)[nH]n1` gave a Tmax [39] of 1.5 h, an AUC at 7 h [40] of 0.613 µM·h and an IC50 [41] of 87 nM. It also gave a bioavailability [42] of 29.3%, a Cmax [43] of 746 nM and a half-life [44] of 696 min.
Work on `OB1OC(N2CCN(c3ccc(F)cc3)CC2)c2ccccc21` (stereo not given) yielded an MIC [45] of 62.5 µg/mL (≈ 200 µM).
